Positions of bridges follow the written chain, without caps; N, C: chain ends. Non-standard residues stand in square brackets, D forms with d. Residues, ends and D or L forms follow the SMILES beside them. *: point of attachment. Malonyl(2,2-Me2,histaminyl) = CC(C)(C(=O)NCCc1cnc[nH]1)C(=O)*; Ala(1H-tetrazol-5-yl) = N[C@@H](Cc1nnn[nH]1)C(=O)O; αMeL = CC(C)C[C@](C)(N)C(=O)O; Nle = CCCC[C@H](N)C(=O)O; Aib = CC(C)(N)C(=O)O; Alloc = C=CCOC(=O)*
Legend:
human GLP2 receptor = molecular target: T1, human GLP2 receptor (Homo sapiens, UniProt O95838); assay: cAMP accumulation assay, functional agonism of human GLP2 receptor; type: cell-based; conditions: HEK cells infected with human GLP2 receptor BacMam virus, HTRF cAMP; for Emax: HEK293, read-out: Human GLP-2R agonist cAMP Emax; for EC50: read-out: Human GLP-2R agonist cAMP pEC50 (converted)
T1 construct: expressed in transfected cells; host or cells: HEK cells, BacMam virus transduction
T1 sequence (O95838 1-553): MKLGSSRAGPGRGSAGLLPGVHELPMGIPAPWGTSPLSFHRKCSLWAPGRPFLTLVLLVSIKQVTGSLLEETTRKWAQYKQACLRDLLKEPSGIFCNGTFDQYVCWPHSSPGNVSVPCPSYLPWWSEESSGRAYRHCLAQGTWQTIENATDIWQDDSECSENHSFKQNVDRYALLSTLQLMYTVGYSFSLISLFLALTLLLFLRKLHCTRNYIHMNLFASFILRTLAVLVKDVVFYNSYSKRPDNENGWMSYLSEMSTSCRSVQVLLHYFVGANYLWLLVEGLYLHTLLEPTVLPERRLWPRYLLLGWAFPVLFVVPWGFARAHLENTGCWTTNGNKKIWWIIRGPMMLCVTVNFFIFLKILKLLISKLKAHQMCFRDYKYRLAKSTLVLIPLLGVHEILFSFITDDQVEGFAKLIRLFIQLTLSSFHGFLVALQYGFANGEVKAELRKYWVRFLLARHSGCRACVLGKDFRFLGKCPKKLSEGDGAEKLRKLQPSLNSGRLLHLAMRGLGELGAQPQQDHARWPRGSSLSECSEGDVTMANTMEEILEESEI
Method: (§1) CAMP production upon agonist stimulation of human GLP2 or GLP1 receptor was assessed utilizing HiRange cAMP kit (Cisbio). In brief, HEK cells were infected with either human GLP2 or GLP1 receptor BacMam virus for 24 hours and frozen for later use in the assay. […] Cells were prepared in the assay buffer (HBSS (Lonza) supplemented with 0.5 mM IBMX (Tocris)). After 45 min incubation at 37° C., the reaction was stopped by addition of the HTRF detection reagents in the lysis buffer provided in the kit.

human GLP1 receptor = molecular target: T2, human GLP1 receptor (Homo sapiens, UniProt P43220); assay: cAMP accumulation assay, functional agonism of human GLP1 receptor; type: cell-based; conditions: HEK cells infected with human GLP1 receptor BacMam virus, HTRF cAMP; for Emax: HEK293, read-out: Human GLP-1R agonist cAMP Emax; for EC50: read-out: Human GLP-1R agonist cAMP pEC50 (converted)
T2 construct: expressed in transfected cells; host or cells: HEK cells, BacMam virus transduction
T2 sequence (P43220 24-463): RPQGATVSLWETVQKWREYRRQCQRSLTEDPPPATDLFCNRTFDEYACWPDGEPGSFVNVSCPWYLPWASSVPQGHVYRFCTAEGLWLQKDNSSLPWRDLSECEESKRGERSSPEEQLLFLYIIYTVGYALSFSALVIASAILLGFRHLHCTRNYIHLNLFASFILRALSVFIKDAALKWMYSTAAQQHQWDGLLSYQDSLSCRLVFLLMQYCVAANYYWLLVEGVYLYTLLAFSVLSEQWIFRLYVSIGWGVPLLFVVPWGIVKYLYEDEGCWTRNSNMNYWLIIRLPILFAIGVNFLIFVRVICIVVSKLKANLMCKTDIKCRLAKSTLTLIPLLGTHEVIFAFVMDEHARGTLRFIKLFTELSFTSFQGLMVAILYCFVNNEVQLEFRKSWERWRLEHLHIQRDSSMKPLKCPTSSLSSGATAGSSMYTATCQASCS
Method: as §1

Compound	Emax (human GLP2 receptor) [%]	EC50 (human GLP2 receptor) [nM]	Emax (human GLP1 receptor) [%]	EC50 (human GLP1 receptor) [nM]
CCCC[C@H](NC(=O)[C@H](CCC(=O)O)NC(=O)[C@@H]1CCCCNC(=O)CC[C@H](NC(=O)[C@H](CC(=O)O)NC(=O)C(C)(C)NC(=O)[C@@H](N)Cc2c[nH]cn2)C(=O)N[C@@H](CO)C(=O)N[C@@H](Cc2ccccc2)C(=O)N[C@@H](CO)C(=O)N1)C(=O)N[C@H](Cc1ccccc1)C(=O)N[C@H](C(=O)N[C@H](C(=O)N[C@@H](CC(C)C)C(=O)N[C@@H](CC(=O)O)C(=O)N[C@@H](CC(C)C)C(=O)N[C@@H](CCCCN)C(=O)N[C@@H](C)C(=O)N[C@@H](C)C(=O)N[C@@H](CCCCN)C(=O)N[C@@H](CC(=O)O)C(=O)N[C@@H](Cc1ccccc1)C(=O)N[C@H](C(=O)N[C@@H](CC(N)=O)C(=O)N[C@@H](Cc1c[nH]c2ccccc12)C(=O)N[C@@H](CC(C)C)C(=O)N[C@H](C(=O)N[C@@H](CCC(N)=O)C(=O)N[C@H](C(=O)N[C@H]1CCC(=O)NCCCC[C@@H](C(N)=O)NC(=O)[C@H]([C@@H](C)O)NC(=O)[C@H]([C@@H](C)CC)NC1=O)[C@@H](C)O)[C@@H](C)CC)[C@@H](C)CC)[C@@H](C)CC)[C@@H](C)O [Example 104] (H-H[Aib]DESFSKE[Nle][dF]TILDLKAAKDFINWLIQTEITK-NH2; lactam 4-8, 30-33 (inferred); C-terminus assumed)	102	0.501	88.3	3.98
CCCC[C@@H]1NC(=O)[C@H](CCC(=O)O)NC(=O)[C@@H](NC(=O)[C@H](CO)NC(=O)[C@H](Cc2ccccc2)NC(=O)[C@H](CO)NC(=O)CNC(=O)[C@H](Cc2nn[nH]n2)NC(=O)C(C)(C)C(=O)NCCc2c[nH]cn2)CCCCNC(=O)C[C@@H](C(=O)N[C@H](C(=O)N[C@@H](CC(C)C)C(=O)N[C@@H](CC(=O)O)C(=O)N[C@@H](CC(C)C)C(=O)N[C@@H](CCCCN)C(=O)N[C@@H](C)C(=O)N[C@@H](C)C(=O)NC(C)(C)C(=O)N[C@@H](CC(=O)O)C(=O)N[C@@H](Cc2ccccc2)C(=O)N[C@H](C(=O)N[C@@H](CC(N)=O)C(=O)N[C@@H](Cc2c[nH]c3ccccc23)C(=O)N[C@@H](CC(C)C)C(=O)N[C@H](C(=O)N[C@@H](CCC(N)=O)C(=O)N[C@H](C(=O)N[C@H]2CCC(=O)NCCCC[C@@H](C(N)=O)NC(=O)[C@H]([C@@H](C)O)NC(=O)[C@H]([C@@H](C)CC)NC2=O)[C@@H](C)O)[C@@H](C)CC)[C@@H](C)CC)[C@@H](C)CC)NC(=O)[C@@H](Cc2ccccc2)NC1=O [Example 108] ({Malonyl(2,2-Me2,histaminyl)}-[Ala(1H-tetrazol-5-yl)]GSFSKE[Nle][dF]DILDLKAA[Aib]DFINWLIQTEITK-NH2; lactam 6-10, 28-31; C-terminus assumed)	104	0.501	92.1	3.98
CCCC[C@H](NC(=O)[C@H](CCC(=O)O)NC(=O)[C@@H]1CC(=O)NCCCC[C@H](NC(=O)[C@H](Cc2nn[nH]n2)NC(=O)C(C)(C)C(=O)NCCc2c[nH]cn2)C(=O)N[C@@H](CO)C(=O)N[C@@H](Cc2ccccc2)C(=O)N[C@@H](CO)C(=O)N1)C(=O)N[C@H](Cc1ccccc1)C(=O)N[C@H](C(=O)N[C@@](C)(CC(C)C)C(=O)N[C@@H](CC(C)C)C(=O)N[C@@H](CC(=O)O)C(=O)N[C@H]1CCC(=O)NCCCC[C@@H](C(=O)N[C@@H](CC(=O)O)C(=O)N[C@@H](Cc2ccccc2)C(=O)N[C@H](C(=O)N[C@H]2CCC(=O)NCCCC[C@@H](C(=O)N[C@H](C(=O)N[C@H]3CCC(=O)NCCCC[C@@H](C(N)=O)NC(=O)[C@H]([C@@H](C)O)NC(=O)[C@H]([C@@H](C)CC)NC3=O)[C@@H](C)O)NC(=O)[C@H]([C@@H](C)CC)NC(=O)[C@H](CC(C)C)NC(=O)[C@H](Cc3c[nH]c4ccccc34)NC2=O)[C@@H](C)CC)NC(=O)[C@H](C)NC(=O)[C@H](C)NC(=O)[C@H](CCCCN)NC1=O)[C@@H](C)O [Example 44] ({Malonyl(2,2-Me2,histaminyl)}-[Ala(1H-tetrazol-5-yl)]KSFSDE[Nle][dF]T[αMeL]LDEKAAKDFIEWLIKTEITK-NH2; lactam 2-6, 14-18, 22-26, 28-31; C-terminus assumed)	104	0.631	96.1	0.2
CCCC[C@H](NC(=O)[C@H](CCC(=O)O)NC(=O)[C@H](CC(=O)O)NC(=O)[C@H](CO)NC(=O)[C@H](Cc1ccccc1)NC(=O)[C@H](CO)NC(=O)CNC(=O)[C@H](Cc1nn[nH]n1)NC(=O)C(C)(C)C(=O)NCCc1c[nH]cn1)C(=O)N[C@H](Cc1ccccc1)C(=O)N[C@H](C(=O)N[C@H](C(=O)N[C@@H](CC(C)C)C(=O)N[C@@H](CC(=O)O)C(=O)N[C@@H](CC(C)C)C(=O)N[C@@H](CCCCN)C(=O)N[C@@H](C)C(=O)N[C@@H](C)C(=O)N[C@@H](CCCCN)C(=O)N[C@@H](CC(=O)O)C(=O)N[C@@H](Cc1ccccc1)C(=O)N[C@H](C(=O)N[C@@H](CC(N)=O)C(=O)N[C@@H](Cc1c[nH]c2ccccc12)C(=O)N[C@@H](CC(C)C)C(=O)N[C@H](C(=O)N[C@@H](CCC(N)=O)C(=O)N[C@H](C(=O)N[C@H]1CCC(=O)NCCCC[C@@H](C(N)=O)NC(=O)[C@H]([C@@H](C)O)NC(=O)[C@H]([C@@H](C)CC)NC1=O)[C@@H](C)O)[C@@H](C)CC)[C@@H](C)CC)[C@@H](C)CC)[C@@H](C)O [Example 83] ({Malonyl(2,2-Me2,histaminyl)}-[Ala(1H-tetrazol-5-yl)]GSFSDE[Nle][dF]TILDLKAAKDFINWLIQTEITK-NH2; lactam 28-31 (inferred); C-terminus assumed)	103	0.251	98.1	0.631
C=CCOC(=O)NCCCC[C@@H]1NC(=O)[C@@H](NC(=O)[C@H](CC(=O)O)NC(=O)[C@H](CC(C)C)NC(=O)[C@@H](NC(=O)[C@@H]2CC(=O)NCCCC[C@H](NC(=O)[C@H](CO)NC(=O)[C@H](Cc3ccccc3)NC(=O)[C@H](CO)NC(=O)CNC(=O)[C@H](Cc3nn[nH]n3)NC(=O)C(C)(C)C(=O)NCCc3c[nH]cn3)C(=O)N[C@@H](CCC(=O)O)C(=O)N[C@@H](CCCC)C(=O)N[C@H](Cc3ccccc3)C(=O)N2)[C@@H](C)CC)CCC(=O)NCCCC[C@@H](C(=O)N[C@@H](CC(=O)O)C(=O)N[C@@H](Cc2ccccc2)C(=O)N[C@H](C(=O)N[C@@H](CC(N)=O)C(=O)N[C@@H](Cc2c[nH]c3ccccc23)C(=O)N[C@@H](CC(C)C)C(=O)N[C@H](C(=O)N[C@@H](CCC(N)=O)C(=O)N[C@H](C(=O)N[C@H]2CCC(=O)NCCCC[C@@H](C(N)=O)NC(=O)[C@H]([C@@H](C)O)NC(=O)[C@H]([C@@H](C)CC)NC2=O)[C@@H](C)O)[C@@H](C)CC)[C@@H](C)CC)NC(=O)[C@H](C)NC(=O)[C@H](C)NC1=O [Example 23] ({Malonyl(2,2-Me2,histaminyl)}-[Ala(1H-tetrazol-5-yl)]GSFSKE[Nle][dF]DILDEK(Alloc)AAKDFINWLIQTEITK-NH2; lactam 6-10, 14-18, 28-31 (inferred); C-terminus assumed)	102	0.0251	94.3	0.794

From patent US20240270809A1, “ORAL GLP RECEPTOR AGONISTS” (priority 2020, published 2024)
